Experimental data taken from patent US20220096436A1, “COMBINATION PRODUCT FOR THE TREATMENT OF CANCER” (Debiopharm International S.A., priority 2019, published 2022).

Legend:
CT-26 colorectal cancer = experiment: Therapeutic efficacy in CT-26 colorectal cancer mouse syngeneic model; type: in vivo; conditions: Debio 1143 combined with IDO inhibitor INCB024360
Experimental: (§1) The therapeutic efficacy of Debio 1143 combined with an anti-CTLA4 antibody was tested in a TS/A breast cancer mouse syngeneic model. Further, the therapeutic efficacy of Debio 1143 combined with an IDO inhibitor (INCB024360) was tested in a CT-26 colorectal cancer mouse syngeneic model.

B16F10 melanoma tumors = experiment: Anti-tumor efficacy in subcutaneous B16F10 mouse melanoma syngeneic model; type: in vivo, C57BL/6 mice; conditions: for TGI: vs vehicle; for mean tumor volume: vehicle group 1529 mm^3
Experimental: C57BL/6 mice were s.c. injected with 2×10^5 B16F10 tumor cells (see, for example, Bobek et al., 2010. Anticancer Res. 30(12):4799-803) and treatments started at a mean group tumor size of 94 mm^3 (n=8/group). Debio 1143 at 100 and 200 mg/kg p.o. was given on 5 days/week in combination with 10 mg/kg i.p. anti-PD1 twice weekly and compared to treatment with vehicle plus isotype antibody. In addition, the 100 mg/kg dose given twice weekly in combination with anti-PD1 at 10 mg/kg i.p. twice weekly was tested.

TS/A breast cancer = experiment: Therapeutic efficacy in TS/A breast cancer mouse syngeneic model; type: in vivo; conditions: Debio 1143 combined with an anti-CTLA4 antibody
Experimental: as §1

[1] = nivolumab 3-10 mg/kg q2w monotherapy across tumor types, n=2,578; cited from earlier work
cancers = conditions: nivolumab monotherapy, 27 trials, n=5,551, cited from earlier work

For `CN[C@@H](C)C(=O)N[C@H]1CN(C(=O)CC(C)C)CC[C@H]2CC[C@@H](C(=O)NC(c3ccccc3)c3ccccc3)N2C1=O` [Debio 1143, (5S,8S,10aR)-N-benzhydryl-5-((S)-2-(methylamino)propanamido)-3-(3-methylbutanoyl)-6-oxodecahydropyrrolo[1,2-a][1,5]diazocine-8-carboxamide], the “combination therapy compared to the respective monotherapies” value (CT-26 colorectal cancer) was “did not lead to a statistically significant improvement”, the TGI (B16F10 melanoma tumors; day 19, Debio 1143 100 mg/kg p.o. QD1-5 combined with anti-PD-1 10 mg/kg, P=0.155) was 31% and the mean tumor volume (B16F10 melanoma tumors; day 19, Debio 1143 200 mg/kg p.o. 5 days/week in combination with 10 mg/kg anti-PD-1) was 594 mm^3. It also gave a TGI (B16F10 melanoma tumors; day 19, Debio 1143 200 mg/kg p.o. 5 days/week in combination with 10 mg/kg anti-PD-1, P=0.005) of 61%, a mean tumor volume (B16F10 melanoma tumors; day 19, bi-weekly Debio 1143 100 mg/kg in combination with anti-PD-1 10 mg/kg) of 1396 mm^3 and a TGI (B16F10 melanoma tumors; day 19, bi-weekly Debio 1143 100 mg/kg in combination with anti-PD-1 10 mg/kg, P=0.757) of 9%. For the same molecule, the mean tumor volume (B16F10 melanoma tumors; day 19 from tumor inoculation, Debio 1143 100 mg/kg p.o. QD1-5 (5 days/week) combined with anti-PD-1 10 mg/kg i.p. twice weekly) was 1049 mm^3 and the “combination therapy compared to the respective monotherapies” value (TS/A breast cancer) was “did not lead to a statistically significant improvement”.

For “nivolumab: fully human immunoglobulin G4 (IgG4) monoclonal antibody, which binds to the PD-1 receptor and blocks its interaction with PD-L1 and PD-L2”, the “adverse reaction frequency: diarrhea” value [1] is given as 13%, the “adverse reaction frequency: fatigue” value [1] is given as 30% and the “adverse reaction frequency: pruritus” value [1] is given as 13%. The “adverse reaction frequency: rash” value [1] was 17%, the “pooled objective response rate (ORR)” value (cancers; 95% CI 21-31) was 26% and the “6-month PFS rate” value (cancers; 95% CI 34-46) was 40%. The “1-year OS rate” value (cancers; 95% CI 43-62) was 52%.
